In patent publication US20120252721A1 (priority 2011, published 2012):

How the values were obtained:
HCV genotype 2a = assay: Genotype 2a assay (NS5A-intergenotypic luciferase replicon / genotype 2a infectious virus assay); type: cell-based; settings: Hepatitis C virus, read-out: EC50 2a
Description: (§1) The nucleotide sequences of the NS5A region of genotype 2a (GenBank Accession # AB047639), genotype 3a (GenBank Accession #D17763), and genotype 4a (GenBank Accession# DQ418788) were synthesized by an outside vendor. The NS5A region of each of these genotypes included the first 11 amino acids of the protease recognition sequence of genotype 1b, as well as the last 10 amino acids of genotype 1b. The NS5A gene cassettes were excised with site specific restriction endonucleases and ligated into a ZS11-luciferase genotype 1b backbone (backbone contains the genotype 1b NS3 protease, NS4a, NS4b, and NS5b coding regions) with similarly cut restriction enzyme sites. Thus, the newly constructed plasmid contains a genotype 2a-, 3a- or 4a-specific NS5A gene within the 1b-replicon.
(§2) These new intergenotypic plasmids were used to establish stable cell lines. RNA was generated from the NS5A intergenotypic plasmids and used in conjunction with a lipofectin reagent to transfect a cured Huh7 cell line. Transfected cells were selected for with G418. After selection has occurred the stable cell lines were propagated, tested for luciferase activity, and RT-PCR with genotype specific primers (either 1a, 2a, 3a, or 4a). Stable cell lines containing the intergenotypic replicon were then fully sequenced and analyzed for proper expression of NS3, NS5A and NS5B proteins.
(§3) Drug titration analysis was performed using the luciferase replicon assay described herein.
The genotype 2a infectious virus assay measures the ability of a test compound to inhibit HCV replication in cell culture after 5 days of treatment at the time of HCV genotype 2a virus infection of a permissive human hepatoma cell line (HPC cells). The inhibition of HCV replication was measured by quantification of HCV core protein expression by an enzyme-linked immunosorbent assay (ELISA). Briefly, HPC cells were grown in DMEM containing glucose, L-glutamine and sodium pyruvate, 10% FBS, 100 IU/mL penicillin, 100 μg/mL streptomycin, 2 mM GlutaMAX, and non-essential amino acids. GlutaMAX was obtained from Invitrogen, Corp.; all other media reagents were obtained from Mediatech, Inc. For dose-response testing, ninety-six-well plates were seeded with HPC cells at a density of 2.5×10^3 cells/well in a volume of 50 μL, and incubated at 37° C./5% CO2. Three hours after plating, 50 μL of ten 5-fold serial dilutions of compound and 100 μL of genotype 2a virus were added, and cell cultures were incubated at 37° C./5% CO2. In all cases, mock infected HPC cells served as negative control. At 16 hours post treatment and infection, the virus inoculum was removed by aspiration. The cultures were treated at the same final concentrations of drug diluted in media and incubated for 4 additional days at 37° C./5% CO2. Subsequently, the core ELISA was performed as follows. The plates were fixed for 90 seconds with acetone/methanol (1:1, v/v), washed three times with KPL wash solution (KPL, Inc.), blocked for 1 hr at room temperature with TNE buffer containing 10% FBS and then incubated for 2 hr at 37° C. with the anti-HCV core mouse monoclonal antibody (Thermo Scientific) diluted in the same buffer. After washing three times with KPL wash solution, the cells were incubated for 1 hr at 37° C. with an anti-mouse immunoglobulin G-peroxidase conjugate in TNE/10% FBS. After washing as described above, the reaction was developed with O-phenylenediamine (Invitrogen). The reaction was stopped after 30 min with 2 NH2SO4, and absorbance was read at 490 nm in a Victor^3V 1420 multilabel counter (Perkin Elmer) and EC50 concentrations were determined using Microsoft Excel and XLfit 4.1 software.
The HCV luciferase replicon assay measures the ability of a test compound to inhibit HCV replication in cell culture after 3 days of treatment in a human hepatoma cell line (Huh-7) bearing an HCV replicon containing a luciferase-neomycin phosphotransferase fusion gene. […]

in vitro = type: cell-based, human; settings: human; Table 1B, cellular viability
Protocol: (§4) For cytotoxicity evaluation, HPC cells were treated with compounds as described above in the absence of the genotype 2a virus and cellular viability was monitored using the Cell Titer 96 AQueous One Solution Cell Proliferation Assay (Promega). Plates were then read at 490 nm in a Victor^3V 1420 multilabel counter (Perkin Elmer) and CC50 concentrations were determined using Microsoft Excel and XLfit 4.1 software.
as §4, with “H1a-luc or Zluc” for “HPC”, “above” for “above in the absence of the genotype 2a virus”

[1] = tested on: HCV genotype 1b Con1 strain subgenomic luciferase replicon (Zluc); assay: Luciferase replicon assay, genotype 1b; type: cell-based; settings: Hepatitis C virus
Protocol: (§5) The HCV luciferase replicon assay measures the ability of a test compound to inhibit HCV replication in cell culture after 3 days of treatment in a human hepatoma cell line (Huh-7) bearing an HCV replicon containing a luciferase-neomycin phosphotransferase fusion gene. The inhibition of HCV replication was measured by quantification of luciferase protein expression. Briefly, Huh-7 cells containing either the HCV genotype 1a H77 strain or genotype 1b Con1 strain subgenomic luciferase replicon (H1a-luc or Zluc, respectively) were grown in DMEM containing glucose, L-glutamine and sodium pyruvate, 10% fetal bovine serum (FBS), 100 IU/mL penicillin, 100 μg/mL streptomycin, 2 mM GlutaMAX, non-essential amino acids and 0.25 (H1a-luc) or 0.5 (Zluc) mg/mL G418. GlutaMAX was obtained from Invitrogen, Corp.; all other media reagents were obtained from Mediatech, Inc. For dose-response testing, the cells were seeded in 96-well plates at 1×10^4 (H1a-luc) or 7.5×10^3 (Zluc) cells/well in a volume of 50 μL, and incubated at 37° C./5% CO2. Three hours after plating, 50 μL of ten 5-fold serial dilutions of compound were added, and cell cultures were incubated at 37° C./5% CO2 for 72 hours. In all cases, Huh-7 cells lacking the HCV replicon served as negative control. To assess luciferase expression, the media/compound was removed from the plates and ONE-glo Luciferase assay reagent (Promega) was added to each well. The assay plates were shaken for 3 minutes at room temperature and luciferase activity for each well was measured with a 1 sec read time on the Victor^3V multilabel counter using a 700 nm cut-off filter (Perkin Elmer). EC50 values were calculated from dose response curves from the resulting best-fit equations determined by Microsoft Excel and XLfit 4.1 software.

[2] = tested on: HCV genotype 3a NS5A within the 1b-replicon; assay: Luciferase replicon assay, NS5A-intergenotypic stable cell line genotype 3a; type: cell-based; settings: Hepatitis C virus, read-out: EC50 3a
Description: as §1, §2, §3, §5

[3] = tested on: HCV genotype 4a NS5A within the 1b-replicon; assay: Luciferase replicon assay, NS5A-intergenotypic stable cell line genotype 4a; type: cell-based; settings: Hepatitis C virus, read-out: EC50 4a
Description: as §1, §2, §3, §5

[4] = tested on: HCV genotype 1a H77 strain subgenomic luciferase replicon (H1a-luc); assay: Luciferase replicon assay, genotype 1a; type: cell-based; settings: Hepatitis C virus; genotype 1a; read-out: EC50 1a
Protocol: as §3, §5

HCV = settings: combination therapy (Poynard et al.); cited from earlier work

In the case of `COC(=O)NC(C(=O)N1CCCC1c1ncc(-c2cc3sc(-c4ccc5[nH]c(C6CCCN6C(=O)C(NC(=O)OC)C(C)C)nc5c4)cc3s2)[nH]1)C(C)C` (stereo in doubt) [Compound A176, ((S)-1-{(S)-2-[5-(5-{(S)-2-[1-((S)-2-methoxycarbonylamino-3-methyl-butyryl)-pyrrolidin-2-yl]-3H-benzoimidazol-5-yl}-thieno[3,2-b]thiophen-2-yl)-1H-imidazol-2-yl]-pyrrolidine-1-carbonyl}-2-methyl-propyl)-carbamic acid methyl ester], the EC50 (HCV genotype 2a) is reported as 0.1 to 1 nM, the CC50 (in vitro) is reported as 10000 to 75000 nM and the EC50 [1] is reported as < 0.1 nM. It also gave an EC50 [2] of 0.1 to 1 nM, an EC50 [3] of 0.1 to 1 nM and an EC50 [4] of 0.1 to 1 nM.

In the case of `COC(=O)N[C@H](C(=O)N1CCC[C@H]1c1nc2ccc(-c3csc4c(C#Cc5cnc([C@@H]6CCCN6C(=O)[C@H](NC(=O)OC)c6ccccc6)[nH]5)csc34)cc2[nH]1)C(C)C` [Compound A206], the EC50 (HCV genotype 2a) is reported as < 0.1 nM, the CC50 (in vitro) is reported as > 75000 nM and the EC50 [1] is reported as < 0.1 nM. The EC50 [2] was < 0.1 nM and the EC50 [3] was < 0.1 nM.

For alpha-interferon and ribavirin, the “sustained efficacy, share of patients” value (HCV) is given as “about 40%”.

With `COC(=O)N[C@@H](C(=O)N1CCCC1c1nc2ccc(-c3csc4c(-c5ccc6[nH]c(C7CCCN7C(=O)[C@H](NC(=O)OC)C(C)C)nc6c5)csc34)cc2[nH]1)c1ccccc1` (stereo partly drawn) [Compound A208] the EC50 (HCV genotype 2a) was < 0.1 nM, the CC50 (in vitro) was > 75000 nM and the EC50 [1] was < 0.1 nM. The EC50 [2] was < 0.1 nM, the EC50 [3] was < 0.1 nM and the EC50 [4] was < 0.1 nM.

For `COC(=O)N[C@H](C(=O)N1CCC[C@H]1c1ncc(-c2ccc(-c3cc4sc(-c5ccc6[nH]c([C@@H]7CCCN7C(=O)[C@H](NC(=O)OC)c7ccccc7)nc6c5)cc4s3)cc2)[nH]1)C(C)C` [Compound A194, [(S)-1-((S)-2-{4-[4-(5-{(S)-2-[1-((R)-2-methoxycarbonylamino-2-phenyl-acetyl)-pyrrolidin-2-yl]-3H-benzoimidazol-5-yl}-thieno[3,2-b]thiophen-2-yl)-phenyl]-1H-imidazol-2-yl}-pyrrolidine-1-carbonyl)-2-methyl-propyl]-carbamic acid methyl ester], the EC50 (HCV genotype 2a) was 1 to 10 nM, the CC50 (in vitro) was > 75000 nM and the EC50 [1] was < 0.1 nM. The EC50 [2] was 0.1 to 1 nM, the EC50 [3] was < 0.1 nM and the EC50 [4] was 0.1 to 1 nM.
